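A five-concentration, 48-hour dose response in 96-well plates underlies each endpoint, interpolated linearly between surrounding concentrations. At the GI50, growth is halved.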 Calls of active or inactive are those of the source. Rule as the data show it: active = GI50 up to about 1.1 µM and inactive = higher.
How the values were obtained:
Test in all cases: growth of human tumour cells (NCI), 48 h
SW-620 = test system: SW-620
786-0 = test system: 786-0
HCC 2998 = test system: HCC 2998
M14 = test system: M14
SR = test system: SR
MOLT-4 = test system: MOLT-4
SK-MEL-28 = test system: SK-MEL-28
RXF 393 = test system: RXF 393
A549 = test system: A549
CAKI-1 = test system: CAKI-1
A498 = test system: A498
BT-549 = test system: BT-549
SF-539 = test system: SF-539
OVCAR-5 = test system: OVCAR-5
DU-145 = test system: DU-145
SN12C = test system: SN12C
U-251 = test system: U-251
OVCAR-8 = test system: OVCAR-8
TK-10 = test system: TK-10
OVCAR-3 = test system: OVCAR-3

Compound | GI50 (SW-620) | GI50 (786-0) | GI50 (HCC 2998) | GI50 (M14) | GI50 (SR) | GI50 (MOLT-4) | GI50 (SK-MEL-28) | GI50 (RXF 393) | GI50 (A549) | GI50 (CAKI-1) | GI50 (A498) | GI50 (BT-549) | GI50 (SF-539) | GI50 (OVCAR-5) | GI50 (DU-145) | GI50 (SN12C) | GI50 (U-251) | GI50 (OVCAR-8) | GI50 (TK-10) | GI50 (OVCAR-3)
C=C(O)c1ccccc1C#Cc1ccccc1C(=O)OC | > 10 µM (inactive) | > 10 µM (inactive) | > 10 µM (inactive) | > 10 µM (inactive) | > 10 µM (inactive) | > 10 µM (inactive) | > 10 µM (inactive) | > 10 µM (inactive) | > 10 µM (inactive) | > 10 µM (inactive) | > 10 µM (inactive) | > 10 µM (inactive) | > 10 µM (inactive) | > 10 µM (inactive) | > 10 µM (inactive) | > 10 µM (inactive) | > 10 µM (inactive) | > 10 µM (inactive) | > 10 µM (inactive) | > 10 µM (inactive)
COC(=O)N/N=C(/c1nc2ccc([N+](=O)[O-])cc2nc1O)C(O)c1ccc(OC)c(OC)c1 (stereo not given) | > 100 µM (inactive) | > 69 µM (inactive) | > 100 µM (inactive) | > 100 µM (inactive) | 19.5 µM (inactive) | 33 µM (inactive) | > 100 µM (inactive) | > 100 µM (inactive) | > 100 µM (inactive) | > 100 µM (inactive) | > 67.8 µM (inactive) | > 100 µM (inactive) | > 100 µM (inactive) | > 100 µM (inactive) | > 100 µM (inactive) | > 100 µM (inactive) | > 100 µM (inactive) | > 100 µM (inactive) | > 100 µM (inactive) | > 54.7 µM (inactive)
COc1cc(NP(=O)(Oc2ccccc2)Oc2ccccc2)ccc1Nc1c2ccccc2nc2c1[nH]c1ccccc12 | 1.22 µM (inactive) | 0.278 µM (active) | 4.36 µM (inactive) | 0.891 µM (active) | < 0.0158 µM (active) | 0.0147 µM (active) | 16.2 µM (inactive) | 2.46 µM (inactive) | 0.16 µM (active) | 0.261 µM (active) | 0.269 µM (active) | 5.51 µM (inactive) | 0.36 µM (active) | 10.5 µM (inactive) | 0.286 µM (active) | 0.327 µM (active) | 0.524 µM (active) | 1.23 µM (inactive) | 3.01 µM (inactive) | 2.08 µM (inactive)
CN(C)CCNc1ccc(CO)c2sc3ccc(O)cc3c(=O)c12 | 1.17 µM (inactive) | 1.13 µM (inactive) | 2.58 µM (inactive) | 3.01 µM (inactive) | < 0.0157 µM (active) | 0.0262 µM (active) | 7.8 µM (inactive) | 1.96 µM (inactive) | 0.286 µM (active) | 0.957 µM (active) | 6.89 µM (inactive) | 2.62 µM (inactive) | 0.459 µM (active) | 5.26 µM (inactive) | 0.467 µM (active) | 1.23 µM (inactive) | 0.783 µM (active) | 1.97 µM (inactive) | 8.77 µM (inactive) | 10.6 µM (inactive)
CC1CN1C(=O)NCCCCCCNC(=O)N1CC1C (stereo not given) | > 100 µM (inactive) | 51.6 µM (inactive) | > 100 µM (inactive) | 68.2 µM (inactive) | 3.11 µM (inactive) | 15.5 µM (inactive) | > 100 µM (inactive) | > 100 µM (inactive) | 31.1 µM (inactive) | 48.4 µM (inactive) | > 100 µM (inactive) | > 100 µM (inactive) | 35 µM (inactive) | > 100 µM (inactive) | 22.2 µM (inactive) | 61.8 µM (inactive) | 65.3 µM (inactive) | 69 µM (inactive) | > 100 µM (inactive) | > 100 µM (inactive)
COc1ccc(/C(CC2OC(=O)c3ccccc32)=N\NC(=O)C[N+](C)(C)C)cc1 (stereo not given) | 25.5 µM (inactive) | 23.6 µM (inactive) | 16.3 µM (inactive) | 38 µM (inactive) | 18.2 µM (inactive) | 23.7 µM (inactive) | 19.7 µM (inactive) | 25.4 µM (inactive) | 36 µM (inactive) | 40.3 µM (inactive) | 24.3 µM (inactive) | 21.5 µM (inactive) | 31.2 µM (inactive) | > 100 µM (inactive) | 20.5 µM (inactive) | 34.7 µM (inactive) | 17.2 µM (inactive) | 19.5 µM (inactive) | 33.4 µM (inactive) | 30.3 µM (inactive)
COc1ccc2c(c1)C=C([N+](=O)[O-])C(C1OC(C)(C)OC1C1COC(C)(C)O1)O2 (stereo not given) | 2.26 µM (inactive) | 12.8 µM (inactive) | 13.3 µM (inactive) | 2.07 µM (inactive) | 1.55 µM (inactive) | 1.79 µM (inactive) | 1.74 µM (inactive) | 1.98 µM (inactive) | 18 µM (inactive) | 4.51 µM (inactive) | 18 µM (inactive) | 2.74 µM (inactive) | 5.66 µM (inactive) | 8.04 µM (inactive) | 16 µM (inactive) | 4.91 µM (inactive) | 3.01 µM (inactive) | 2.85 µM (inactive) | 18.4 µM (inactive) | 8.69 µM (inactive)
O=C(O)c1cnc2cc(OCc3ccccc3)ccc2c1O | 19.2 µM (inactive) | 18.5 µM (inactive) | 18.3 µM (inactive) | 17 µM (inactive) | 23 µM (inactive) | 31.2 µM (inactive) | 16 µM (inactive) | 18.3 µM (inactive) | 19.5 µM (inactive) | 20.2 µM (inactive) | 17.6 µM (inactive) | 18.4 µM (inactive) | 19 µM (inactive) | 27.3 µM (inactive) | 18 µM (inactive) | 18.2 µM (inactive) | 18.6 µM (inactive) | 19 µM (inactive) | 19.9 µM (inactive) | 20.7 µM (inactive)
O=C1c2ccccc2C(=O)c2sc(Nc3ccccc3Cl)nc21 | 4.15 µM (inactive) | 14.6 µM (inactive) | 18.5 µM (inactive) | 5.36 µM (inactive) | 3.93 µM (inactive) | 3.93 µM (inactive) | 15.1 µM (inactive) | 16.4 µM (inactive) | 19.8 µM (inactive) | 4.06 µM (inactive) | 16.2 µM (inactive) | 16 µM (inactive) | 15.8 µM (inactive) | 19.8 µM (inactive) | 17.6 µM (inactive) | 7.5 µM (inactive) | 4.93 µM (inactive) | 5.85 µM (inactive) | 19.7 µM (inactive) | 10.7 µM (inactive)
OC/C=C/[C@H](OCc1ccccc1)[C@H](/C=C/CO)OCc1ccccc1 | 39.9 µM (inactive) | 44.9 µM (inactive) | 50.2 µM (inactive) | 76.6 µM (inactive) | 18.8 µM (inactive) | 13.7 µM (inactive) | 35.8 µM (inactive) | 9.06 µM (inactive) | 30.3 µM (inactive) | > 100 µM (inactive) | > 100 µM (inactive) | 59.2 µM (inactive) | > 100 µM (inactive) | > 100 µM (inactive) | 81.1 µM (inactive) | 47.8 µM (inactive) | 24.5 µM (inactive) | 46.2 µM (inactive) | 73.1 µM (inactive) | 39.7 µM (inactive)
CCCCCCCCCCCCCCCCCCOCC(COP(=O)([O-])OCC[N+](C)(C)C)OC (stereo not given) [EDELFOSINE] | 19.1 µM (inactive) | 22.3 µM (inactive) | 2.38 µM (inactive) | 32.9 µM (inactive) | 7.87 µM (inactive) | 11.5 µM (inactive) | 41.2 µM (inactive) | 13.9 µM (inactive) | 21.4 µM (inactive) | 13.1 µM (inactive) | 19.8 µM (inactive) | 48.8 µM (inactive) | > 58.5 µM (inactive) | 15.9 µM (inactive) | > 100 µM (inactive) | 12.1 µM (inactive) | 13.6 µM (inactive) | 32.1 µM (inactive) | 19 µM (inactive) | 34.3 µM (inactive)
COc1ccc2c(c1)CC[C@@H]1[C@@H]2CC[C@]2(C)/C(=N/OCCN3CCCCC3)CC[C@@H]12 | 5.11 µM (inactive) | 1.85 µM (inactive) | 2.89 µM (inactive) | 2.42 µM (inactive) | 2.44 µM (inactive) | 3.06 µM (inactive) | 2.12 µM (inactive) | 2.81 µM (inactive) | 5.35 µM (inactive) | 1.94 µM (inactive) | 6.38 µM (inactive) | 12.8 µM (inactive) | 2.77 µM (inactive) | 5.33 µM (inactive) | 3.85 µM (inactive) | 4.34 µM (inactive) | 8.09 µM (inactive) | 9.79 µM (inactive) | 4.74 µM (inactive) | 3.69 µM (inactive)
Cc1ccc(/C=C2\CN(C)CC3C2=NC(=S)NC3c2ccc(C)cc2)cc1 (stereo not given) | > 88.7 µM (inactive) | 86.3 µM (inactive) | 16.1 µM (inactive) | 42.5 µM (inactive) | 29.9 µM (inactive) | 14.6 µM (inactive) | > 100 µM (inactive) | 30.3 µM (inactive) | 35.3 µM (inactive) | > 77.1 µM (inactive) | > 86.7 µM (inactive) | > 72.4 µM (inactive) | > 100 µM (inactive) | > 100 µM (inactive) | > 85.7 µM (inactive) | 52.1 µM (inactive) | 20.5 µM (inactive) | 53.1 µM (inactive) | > 76.4 µM (inactive) | 38.6 µM (inactive)
C[C@@H]1CCC([C@@H](C)[C@H]2CC[C@H]3[C@@H]4CC[C@H]5C[C@@H](O)CC[C@]5(C)[C@H]4CC[C@]23C)=NC1 | 40.8 µM (inactive) | 8.02 µM (inactive) | 6.52 µM (inactive) | 4.73 µM (inactive) | 12 µM (inactive) | 13 µM (inactive) | 20.1 µM (inactive) | 12.2 µM (inactive) | 16.9 µM (inactive) | 12.7 µM (inactive) | > 70.1 µM (inactive) | 25.6 µM (inactive) | 15 µM (inactive) | 24.4 µM (inactive) | > 47 µM (inactive) | 8.59 µM (inactive) | 8.63 µM (inactive) | 8.11 µM (inactive) | 34.7 µM (inactive) | 20.4 µM (inactive)
